In ChEMBL document CHEMBL6103545, “Discovery of GS-2278, a Potent and Selective LPAR1 Antagonist for the Treatment of Idiopathic Pulmonary Fibrosis” (J Med Chem, 2025):
pEC50, pIC50: −log10 of the molar value.

What was measured:
[1] = Plasma protein binding in Beagle dog assessed as unbound fraction at 2 uM incubated for 24 hrs by LC-MS analysis; type: ADME, cell-free, Canis lupus familiaris
[2] = Volume of distribution in male Sprague-Dawley rat at 1 mg/kg, iv s measured after 24 hrs by LC/MS/MS analysis; type: ADME, organism-based; conditions: in vivo
[3] = Volume of distribution in Beagle dog at 1 mg/kg, iv measured after 24 hrs by LC/MS/MS analysis; type: ADME, organism-based, Canis lupus familiaris; conditions: in vivo
[4] = target: Voltage-gated inwardly rectifying potassium channel KCNH2 (Homo sapiens, UniProt Q12809); assay: Inhibition of human ERG; type: toxicity
Voltage-gated inwardly rectifying potassium channel KCNH2, sequence (Q12809 whole entry): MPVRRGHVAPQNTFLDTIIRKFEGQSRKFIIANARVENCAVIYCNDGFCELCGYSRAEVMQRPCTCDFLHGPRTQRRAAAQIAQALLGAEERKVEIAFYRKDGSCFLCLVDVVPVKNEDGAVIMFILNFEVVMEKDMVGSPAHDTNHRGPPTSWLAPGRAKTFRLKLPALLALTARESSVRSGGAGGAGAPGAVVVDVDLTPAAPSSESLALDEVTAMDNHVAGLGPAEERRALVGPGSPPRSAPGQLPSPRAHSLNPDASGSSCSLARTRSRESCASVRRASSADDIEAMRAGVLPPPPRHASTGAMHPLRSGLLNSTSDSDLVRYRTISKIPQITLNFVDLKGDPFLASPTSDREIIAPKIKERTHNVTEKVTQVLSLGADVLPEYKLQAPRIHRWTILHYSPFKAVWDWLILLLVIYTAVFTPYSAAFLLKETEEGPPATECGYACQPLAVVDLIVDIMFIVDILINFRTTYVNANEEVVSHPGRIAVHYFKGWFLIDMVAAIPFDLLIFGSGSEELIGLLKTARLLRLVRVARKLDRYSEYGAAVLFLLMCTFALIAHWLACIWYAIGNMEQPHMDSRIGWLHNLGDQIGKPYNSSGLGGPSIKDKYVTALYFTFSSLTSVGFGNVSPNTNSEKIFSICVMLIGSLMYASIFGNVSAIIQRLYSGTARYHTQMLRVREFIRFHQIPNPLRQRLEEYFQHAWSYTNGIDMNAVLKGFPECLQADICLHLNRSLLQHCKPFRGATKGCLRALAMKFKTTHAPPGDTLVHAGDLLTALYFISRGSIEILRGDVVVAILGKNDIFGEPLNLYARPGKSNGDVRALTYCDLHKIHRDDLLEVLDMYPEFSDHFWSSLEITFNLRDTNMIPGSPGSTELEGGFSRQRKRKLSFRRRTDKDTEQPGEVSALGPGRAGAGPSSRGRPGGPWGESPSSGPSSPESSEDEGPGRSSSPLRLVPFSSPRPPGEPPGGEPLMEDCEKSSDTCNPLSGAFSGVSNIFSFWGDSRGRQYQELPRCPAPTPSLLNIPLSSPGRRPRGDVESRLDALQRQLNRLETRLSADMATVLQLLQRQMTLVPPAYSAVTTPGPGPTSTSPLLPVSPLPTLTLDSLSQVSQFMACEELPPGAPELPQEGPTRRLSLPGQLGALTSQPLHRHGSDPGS

[5] = Plasma protein binding in human assessed as unbound fraction at 2 uM incubated for 24 hrs by LC-MS analysis; type: ADME, cell-free
[6] = Apparent permeability across apical to basolateral side in cMDR1 knockout MDCK-II cells incubated upto 240 mins by RF-QToF analysis; type: ADME, cell-based, Canis lupus familiaris; conditions: dog
[7] = target: T1, Lysophosphatidic acid receptor 1 (Homo sapiens, UniProt Q92633); assay: Antagonist activity at LPA1 receptor in serum starved human Primary lung fibroblast cells pre-incubated for 1 hr followed by LPA stimulation and measured after 30 min by MRTF-A assay; type: cell-based
T1 sequence (Q92633 whole entry): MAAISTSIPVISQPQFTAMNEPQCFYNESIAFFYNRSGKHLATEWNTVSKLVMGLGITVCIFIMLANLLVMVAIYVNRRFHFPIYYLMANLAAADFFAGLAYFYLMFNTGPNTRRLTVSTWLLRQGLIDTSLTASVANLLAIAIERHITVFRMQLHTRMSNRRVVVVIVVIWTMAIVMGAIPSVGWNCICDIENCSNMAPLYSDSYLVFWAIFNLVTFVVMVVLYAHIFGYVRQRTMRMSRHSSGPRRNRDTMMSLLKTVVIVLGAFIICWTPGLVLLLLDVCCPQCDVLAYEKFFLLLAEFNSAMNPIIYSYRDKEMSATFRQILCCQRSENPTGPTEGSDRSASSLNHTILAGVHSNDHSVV

[8] = Oral bioavailability in male Sprague-Dawley rat at 5 mg/kg measured after 24 hrs by LC/MS/MS analysis; type: ADME, organism-based; conditions: in vivo
[9] = Drug metabolism in female CD-1 mouse assessed as (R)-1-(2,5-Difluoropyridin-3-yl)ethyl (4-(5-Acetamidopyridin-2-yl)-1-methyl-1H-1,2,3-triazol-5-yl)carbamate metabolite formation at 1 uM by LC/MS/MS analysis; type: ADME
[10] = Half-life in cynomolgus monkey at 5 mg/kg, po measured after 24 hrs by LC/MS/MS analysis; type: ADME, organism-based, Macaca fascicularis; conditions: in vivo
[11] = target: Cytochrome P450 2C19 (Homo sapiens, UniProt P33261); assay: Inhibition of CYP2C19 (unknown origin) using midazolam as substrate; type: ADME
Cytochrome P450 2C19, sequence (P33261 whole entry): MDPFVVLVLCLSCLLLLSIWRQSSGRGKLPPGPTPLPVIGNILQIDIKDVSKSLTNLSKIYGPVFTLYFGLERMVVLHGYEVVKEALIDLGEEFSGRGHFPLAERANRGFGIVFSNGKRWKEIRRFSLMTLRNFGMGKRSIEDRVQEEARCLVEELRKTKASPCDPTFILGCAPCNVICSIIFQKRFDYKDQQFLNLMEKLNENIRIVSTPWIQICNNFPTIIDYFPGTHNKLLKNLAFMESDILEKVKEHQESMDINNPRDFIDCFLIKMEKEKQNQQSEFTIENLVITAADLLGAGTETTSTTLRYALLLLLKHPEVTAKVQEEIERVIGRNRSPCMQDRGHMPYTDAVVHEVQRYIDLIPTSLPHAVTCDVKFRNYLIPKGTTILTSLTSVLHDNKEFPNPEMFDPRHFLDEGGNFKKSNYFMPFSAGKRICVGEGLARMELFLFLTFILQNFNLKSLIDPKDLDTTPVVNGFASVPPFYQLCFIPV

[12] = target: T1, Lysophosphatidic acid receptor 1; assay: Antagonist activity at human wild-type LPA1 receptor expressed in HEK293 cells assessed as internalization incubated for 30 mins by BRET assay; type: cell-based
[13] = target: Cytochrome P450 3A4 (Homo sapiens, UniProt P08684); assay: Inhibition of CYP3A4 (unknown origin) using testosterone as substrate; type: ADME
Cytochrome P450 3A4, sequence (P08684 whole entry): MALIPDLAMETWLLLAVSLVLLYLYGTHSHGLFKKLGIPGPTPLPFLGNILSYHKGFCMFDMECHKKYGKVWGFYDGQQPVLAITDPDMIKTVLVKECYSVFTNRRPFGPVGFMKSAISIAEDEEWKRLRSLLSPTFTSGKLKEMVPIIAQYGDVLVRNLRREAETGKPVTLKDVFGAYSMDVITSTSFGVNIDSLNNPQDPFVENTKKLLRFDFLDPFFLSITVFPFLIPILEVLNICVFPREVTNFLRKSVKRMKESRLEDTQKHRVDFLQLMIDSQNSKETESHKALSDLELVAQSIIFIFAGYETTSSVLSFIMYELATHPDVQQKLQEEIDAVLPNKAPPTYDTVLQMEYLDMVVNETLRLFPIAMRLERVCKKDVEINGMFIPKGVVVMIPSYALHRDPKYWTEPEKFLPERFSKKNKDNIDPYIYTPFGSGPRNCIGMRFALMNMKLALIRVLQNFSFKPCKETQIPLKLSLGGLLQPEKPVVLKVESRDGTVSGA

[14] = Metabolic stability in male Sprague-Dawley rat liver microsomes assessed as intrinsic clearance at 1 uM by LC/MS/MS analysis; type: ADME, Microsome; conditions: read-out: CLH (converted)
[15] = Unbound drug concentration in CD-1 mouse brain at 2 uM incubated for 5 hrs by LC-MS analysis; type: ADME, tissue-based
[16] = Oral bioavailability in cynomolgus monkey at 5 mg/kg measured after 24 hrs by LC/MS/MS analysis; type: ADME, organism-based, Macaca fascicularis; conditions: in vivo
[17] = target: T1, Lysophosphatidic acid receptor 1; assay: Antagonist activity at LPA1 receptor in serum starved human TWNT-4 cells assessed as nuclear translocation pre-incubated for 1 hr followed by LPA stimulation and measured after 30 min by MRTF-A assay; type: cell-based
[18] = system: BCRP (human); assay: Apparent permeability from apical to basolateral side of human BCRP transfected MDCK cells measured after 20 min by LC/MS/MS analysis; type: ADME, cell-based, Canis lupus familiaris; conditions: dog
[19] = target: Cytochrome P450 2C9 (Homo sapiens, UniProt P11712); assay: Inhibition of CYP2C9 (unknown origin) using midazolam as substrate; type: ADME
Cytochrome P450 2C9, sequence (P11712 whole entry): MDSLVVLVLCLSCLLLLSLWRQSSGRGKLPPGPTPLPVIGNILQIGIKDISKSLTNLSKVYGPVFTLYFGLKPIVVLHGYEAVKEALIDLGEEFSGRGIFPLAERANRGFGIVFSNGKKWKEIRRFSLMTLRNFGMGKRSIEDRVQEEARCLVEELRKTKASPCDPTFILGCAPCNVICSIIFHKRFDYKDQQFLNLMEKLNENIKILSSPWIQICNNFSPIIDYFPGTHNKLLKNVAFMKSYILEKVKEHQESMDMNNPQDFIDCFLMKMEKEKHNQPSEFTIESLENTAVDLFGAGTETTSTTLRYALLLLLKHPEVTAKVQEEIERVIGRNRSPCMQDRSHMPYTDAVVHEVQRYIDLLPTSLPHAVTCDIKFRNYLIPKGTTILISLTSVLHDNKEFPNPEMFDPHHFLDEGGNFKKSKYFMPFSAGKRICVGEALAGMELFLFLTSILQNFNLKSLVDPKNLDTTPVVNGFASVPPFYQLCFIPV

[20] = Metabolic stability in cynomolgus monkey liver microsomes assessed as intrinsic clearance at 1 uM by LC/MS/MS analysis; type: ADME, Macaca fascicularis, Microsome; conditions: read-out: CLH (converted)
[21] = target: Cytochrome P450 2D6 (Homo sapiens, UniProt P10635); assay: Inhibition of CYP2D6 (unknown origin) using midazolam as substrate; type: ADME
Cytochrome P450 2D6, sequence (P10635 whole entry): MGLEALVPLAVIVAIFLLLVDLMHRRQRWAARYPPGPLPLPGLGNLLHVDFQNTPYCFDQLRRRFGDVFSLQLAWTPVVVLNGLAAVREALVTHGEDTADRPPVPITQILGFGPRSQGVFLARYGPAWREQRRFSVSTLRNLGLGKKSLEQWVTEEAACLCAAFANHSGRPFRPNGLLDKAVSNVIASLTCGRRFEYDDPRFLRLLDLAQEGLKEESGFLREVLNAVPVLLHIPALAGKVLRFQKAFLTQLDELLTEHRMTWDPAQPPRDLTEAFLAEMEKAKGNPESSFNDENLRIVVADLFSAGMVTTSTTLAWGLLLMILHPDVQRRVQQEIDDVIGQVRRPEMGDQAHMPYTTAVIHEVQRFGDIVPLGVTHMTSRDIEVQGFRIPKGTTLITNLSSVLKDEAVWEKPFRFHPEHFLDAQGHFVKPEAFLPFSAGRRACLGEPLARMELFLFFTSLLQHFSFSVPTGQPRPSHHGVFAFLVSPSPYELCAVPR

[22] = Half-life in Beagle dog at 5 mg/kg, po measured after 24 hrs by LC/MS/MS analysis; type: ADME, organism-based, Canis lupus familiaris; conditions: in vivo
[23] = Toxicity in Beagle dog CNS at 60 mg/kg/day, po measured after 7 days by radiotelemetry; type: organism-based, Canis lupus familiaris; conditions: in vivo, 168 h, time 7 day
[24] = Apparent permeability from apical to basolateral side in human Caco-2 cells at 10 uM; type: ADME, cell-based
[25] = target: T1, Lysophosphatidic acid receptor 1; assay: Antagonist activity at human LPA1 receptor expressed in HEK293 cells assessed as beta-arrestin2 effector recruitment incubated for 10 mins by BRET assay; type: functional, cell-based
[26] = target: T1, Lysophosphatidic acid receptor 1; assay: Antagonist activity at human LPA1 receptor expressed in HEK293 cells assessed as Galpha12 effector recruitment incubated for 10 mins by BRET assay; type: functional, cell-based
[27] = Toxicity in Beagle dog CNS at 10 mg/kg/day, po measured after 28 days by radiotelemetry; type: organism-based, Canis lupus familiaris; conditions: in vivo, 672 h, time 28 day
[28] = target: T2, Cytochrome P450 1A2 (Homo sapiens, UniProt P05177); assay: Inhibition of CYP1A2 (unknown origin) using midazolam as substrate; type: ADME
T2 sequence (P05177 whole entry): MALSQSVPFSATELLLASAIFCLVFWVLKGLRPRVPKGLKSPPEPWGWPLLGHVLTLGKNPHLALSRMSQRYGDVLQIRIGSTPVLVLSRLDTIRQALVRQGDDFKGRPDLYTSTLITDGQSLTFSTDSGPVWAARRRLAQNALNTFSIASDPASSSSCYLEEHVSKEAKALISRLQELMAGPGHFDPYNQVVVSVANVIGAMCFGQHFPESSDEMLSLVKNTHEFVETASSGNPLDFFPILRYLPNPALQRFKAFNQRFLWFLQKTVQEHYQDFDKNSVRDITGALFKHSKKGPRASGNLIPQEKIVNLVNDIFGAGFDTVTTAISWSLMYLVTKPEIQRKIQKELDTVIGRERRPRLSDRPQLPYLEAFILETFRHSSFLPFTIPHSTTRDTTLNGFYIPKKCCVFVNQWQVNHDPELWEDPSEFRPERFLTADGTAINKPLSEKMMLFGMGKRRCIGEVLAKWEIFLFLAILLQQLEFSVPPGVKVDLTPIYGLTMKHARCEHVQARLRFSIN

[29] = AUC (0 to 24 hrs) in cynomolgus monkey at 5 mg/kg, po measured after 24 hrs by LC/MS/MS analysis; type: ADME, organism-based, Macaca fascicularis; conditions: in vivo
[30] = system: P-gp (human); assay: Apparent permeability from basolateral to apical side of human P-gp transfected MDCK cells measured after 20 min by LC/MS/MS analysis; type: ADME, cell-based, Canis lupus familiaris; conditions: dog, MDCK-MDR1
[31] = Toxicity in Beagle dog CNS at 30 mg/kg/day, po measured after 7 days by radiotelemetry; type: organism-based, Canis lupus familiaris; conditions: in vivo, 168 h, time 7 day
[32] = Volume of distribution in cynomolgus monkey at 1 mg/kg, iv measured after 24 hrs by LC/MS/MS analysis; type: ADME, organism-based, Macaca fascicularis; conditions: in vivo
[33] = Plasma protein binding in female CD-1 mouse assessed as unbound fraction at 2 uM incubated for 24 hrs by LC-MS analysis; type: ADME, cell-free
[34] = Mutagenicity in Salmonella typhimurium TA98 by Ames assay; type: toxicity; conditions: salmonella enterica subsp. enterica serovar typhimurium
[35] = Half-life in male Sprague-Dawley rat at 5 mg/kg, po measured after 24 hrs by LC/MS/MS analysis; type: ADME, organism-based; conditions: in vivo
[36] = Plasma protein binding in human assessed as unbound fraction incubated for 24 hrs by equilibrium dialysis based Rapidfire-QToF mass spectrometric analysis; type: ADME, cell-free
[37] = system: BCRP (human); assay: Apparent permeability from basolateral to apical side of human BCRP transfected MDCK cells measured after 20 min by LC/MS/MS analysis; type: ADME, cell-based, Canis lupus familiaris; conditions: dog
[38] = Toxicity in Beagle dog CNS at 30 mg/kg/day, po measured after 28 days by radiotelemetry; type: organism-based, Canis lupus familiaris; conditions: in vivo, 672 h, time 28 day

fraction unbound at 24 h, 2 µM [1]: 0.095
Vd [2]: 0.8 L/kg
Vd [3]: 0.4 L/kg
fraction unbound at 24 h, 2 µM [5]: 0.14
pEC50 [7]: 8.10
bioavailability [8]: 40%
Drug metabolism [9]: metabolite_detected
half-life [10]: 3.9 h
inhibition (INH) [11]: Not_active
pEC50 [12]: 7.93
inhibition (INH) [13]: Time-dependent-effect
CLint scaled at 1 µM [14]: 16.3 mL/min/kg
fraction unbound at 5 h, 2 µM [15]: 0.133
bioavailability [16]: 43%
pEC50 [17]: 7.92
Papp A→B at 20 min [18]: < 0.01 ×10⁻⁶ cm/s
inhibition (INH) [19]: Not_active
CLint scaled at 1 µM [20]: 7.5 mL/min/kg
inhibition (INH) [21]: Not_active
half-life [22]: 2.9 h
Papp A→B at 10 µM [24]: 0.4 ×10⁻⁶ cm/s
pEC50 [25]: 6.87
pEC50 [26]: 6.97
inhibition (INH) [28]: Not_active
AUC(0-t) at 24 h [29]: 8.9 µM·h
Papp B→A at 20 min [30]: 11 ×10⁻⁶ cm/s
Vd [32]: 0.8 L/kg
fraction unbound at 24 h, 2 µM [33]: 0.066
half-life [35]: 3.9 h
Papp B→A at 20 min [37]: 12 ×10⁻⁶ cm/s
Structure (SMILES): C[C@@H](OC(=O)Nc1c(-c2ccc(NC(=O)c3cnc(C(F)(F)F)nc3)cn2)nnn1C)c1cc(F)cnc1F
pIC50 [4]: < 4.52
Papp A→B at 4 h [6]: 11 ×10⁻⁶ cm/s
Activity [23]: Non-toxic
Activity [27]: Non-toxic
Activity [31]: Non-toxic
Activity [34]: Non-toxic
fraction unbound at 24 h [36]: 0.19
Activity [38]: Non-toxic
